Measured values reported in ChEMBL document CHEMBL4834442, “Immunosuppressive 9,10-Secosteroids from the Gorgonian Verrucella umbraculum Collected in the South China Sea” (J Nat Prod, 2021).
Activity calls are given as the source filed them. The rule behind the calls is not given here.

What was measured:
[1] = Cytotoxicity against C57BL/6 mouse spleen mononuclear cells assessed as cell viability at 0.5 to 1 uM measured after 48 hrs by CCK-8 assay; format: cell-based; conditions: mononuclear cell line, dose 0.5-1 µM
CD4+ve Th = experiment: Immunosuppressive activity in C57BL/6 mouse SMNCs-derived CD4+ T cells assessed as inhibition of concanavalinA-stimulated cell proliferation at 1 uM measured after 5 to 7 days by CFSE staining based FACScan flowcytometry; format: functional; conditions: time 5-7 day

## Cc1ccc(O)cc1CC[C@]1(O)C(=O)CC[C@]2(C)[C@@H]([C@H](C)/C=C/[C@@H](C)C(C)C)CC[C@H]21
[1]
  Activity: Non-Toxic
CD4+ve Th
  Activity: Active

## Cc1ccc(O)cc1CC[C@@H]1[C@H](O)CC[C@]2(C)[C@@H]([C@H](C)/C=C/CC(C)C)CC[C@@H]12
[1]
  Activity: Non-Toxic
CD4+ve Th
  Activity: Active

## Cc1ccc(O)cc1CC[C@]1(O)C(=O)CC[C@]2(C)[C@@H]([C@H](C)/C=C/[C@@H](C)C(C)C)C[C@@H](O)[C@H]21
[1]
  Activity: Non-Toxic
CD4+ve Th
  Activity: inactive

## Cc1ccc(O)cc1CC[C@]1(O)[C@H](O)CC[C@]2(C)[C@@H]([C@H](C)CC[C@@H](C)C(C)C)CC[C@H]21
[1]
  Activity: Non-Toxic
CD4+ve Th
  Activity: Active

## Cc1ccc(O)cc1CC[C@]1(O)[C@H](O)CC[C@]2(C)[C@@H]([C@H](C)/C=C/CC(C)C)CC[C@H]21
[1]
  Activity: Non-Toxic
CD4+ve Th
  Activity: Active

## Cc1ccc(O)cc1CC[C@]1(O)C(=O)CC[C@]2(C)[C@@H]([C@H](C)/C=C/CC(C)C)CC[C@H]21
[1]
  Activity: Non-Toxic
CD4+ve Th
  Activity: Active

## C=C(CC[C@@H](C)[C@H]1CC[C@@H]2[C@]1(C)CC[C@@H](O)[C@@]2(O)CCc1cc(O)ccc1C)C(C)C
[1]
  Activity: Non-Toxic
CD4+ve Th
  Activity: Active

## C/C=C(/CC[C@@H](C)[C@H]1CC[C@@H]2[C@]1(C)CC[C@@H](O)[C@@]2(O)CCc1cc(O)ccc1C)C(C)C
[1]
  Activity: Non-Toxic
CD4+ve Th
  Activity: inactive

## Cc1ccc(O)cc1CC[C@@H]1[C@H](O)CC[C@]2(C)[C@@H]([C@H](C)CCCC(C)C)CC[C@@H]12 [ASTROGORGIADIOL]
[1]
  Activity: Non-Toxic
CD4+ve Th
  Activity: Active

## CC(C)=CCC[C@@H](C)[C@H]1CC[C@H]2[C@H](CCc3cc(O)ccc3C)[C@H](O)CC[C@]12C [CALICOFEROL G]
[1]
  Activity: Non-Toxic
CD4+ve Th
  Activity: Active

## Cc1ccc(O)cc1CC[C@]1(O)[C@H](O)CC[C@]2(C)[C@@H]([C@H](C)/C=C/[C@@H](C)C(C)C)CC[C@H]21
[1]
  Activity: Non-Toxic
CD4+ve Th
  Activity: Active

## Cc1ccc(O)cc1CC[C@]1(O)[C@H](O)CC[C@]2(C)[C@@H]([C@H](C)CCCC(C)C)CC[C@H]21
[1]
  Activity: Non-Toxic
CD4+ve Th
  Activity: Active

## C=C(CC[C@@H](C)[C@H]1CC[C@H]2[C@H](CCc3cc(O)ccc3C)[C@H](O)CC[C@]12C)C(C)C [CALICOFEROL C]
[1]
  Activity: Non-Toxic
CD4+ve Th
  Activity: Active

## Cc1ccc(O)cc1CC[C@@H]1[C@H](O)CC[C@]2(C)[C@@H]([C@H](C)CCCC(C)C)[C@@H](O)C[C@@H]12 [CALICOFEROL B]
[1]
  Activity: Non-Toxic
CD4+ve Th
  Activity: Active

## Cc1ccc(O)cc1CC[C@@H]1[C@H](O)CC[C@]2(C)[C@@H]([C@H](C)/C=C/[C@@H](C)C(C)C)CC[C@@H]12
[1]
  Activity: Non-Toxic
CD4+ve Th
  Activity: Active

## Cc1ccc(O)cc1CC[C@]1(O)[C@H](O)CC[C@]2(C)[C@@H]([C@H](C)CC[C@H](C)C(C)C)CC[C@H]21
[1]
  Activity: Non-Toxic
CD4+ve Th
  Activity: Active
